Data: patent US20220249596A1, “PIC1 PEPTIDE COMPOSITIONS AND METHODS OF USE THEREOF FOR TREATMENT OF HYPOXIC ISCHEMIC ENCEPHALOPATHY” (REALTA HOLDINGS, LLC, priority 2019, published 2022)
Entries after “also recorded” stand apart in the source; their conditions may differ. No end group written: not given here.

Assays:
Assay type in all cases: in vivo, rat
[1] = test system: neurons, microglia and astrocytes of ipsilateral cortex and hippocampus; assay: Immunofluorescence of neurons (NeuN), microglia (Iba1), astrocytes (GFAP) after HIE; settings: P<0.05
Experimental: (§1) TUNEL/C1q staining was performed as follows. Five (5) μm paraffin-embedded coronal brain sections on slides were incubated (1 hour; 60° C.), deparaffinized with xylene, and rehydrated with ethanol (100%, 95%, 70%; RT). Endogenous peroxidase activity was blocked (0.3% H2O2/MeOH; 10 minutes; RT), and heat induced antigen retrieval was performed (when indicated) using 10 mM sodium citrate, pH 6.0. 10% normal serum (from the same species as the host of the secondary antibody) was used to block and to dilute antibodies. Samples were washed twice for 10 min each, in PBST between each step.
After blocking for one hour at room temperature, tissues were incubated with 1:300 goat anti-Iba1 (Abcam), 1:250 goat anti-GFAP (Abcam), 1:500 chicken anti-NeuN (Millipore, Billerica, Mass.), or 1:100 mouse anti-NeuN (Millipore) in host appropriate blocking serum overnight at 4° C. Primary antibodies were probed with 1:500 donkey anti-goat (Abcam), goat anti-chicken (Abcam), or goat anti-mouse (Abcam) AF 488 or 568 in appropriate blocking serum for one hour at room temperature. Tissues were blocked a second time with NGS for one hour at room temperature. Samples were then probed with 1:300 mouse anti-C1q (Abcam), 1:300 rabbit anti-C9, 1:50 rabbit anti-MPO (Abcam), 1:200 rabbit anti-TMEM (Novus Bio, Centennial, Colo.), 1:100 rabbit anti-C3aR (Bioss), 1:100 Mouse anti-C5aR (Hycult), or 1:200 chicken anti-C3/C3a (Abcam) in NGS overnight at 4° C. and then with 1:500 goat anti-mouse, rabbit, or chicken (Abcam) AF 488 or 568 in NGS for one hour at room temperature.
Fluorescent images of the cortex were taken at 20× magnification using a digital camera (DP70, Olympus Center, Valley Forge, Pa.), mounted on a BX50 Olympus microscope. Adobe Photoshop CS5 was used to merge immunofluorescence images, and Image J (National Institutes of Health) was used for analysis.

C1q = assay: Immunofluorescence quantification of C1q in brain; settings: ipsilateral cortex and hippocampus, 48 hours, versus NT and HT, P<0.05
Experimental: as §1
After blocking for one hour at room temperature, tissues were incubated with 1:300 goat anti-Iba1 (Abcam), 1:250 goat anti-GFAP (Abcam), 1:500 chicken anti-NeuN (Millipore, Billerica, Mass.), or 1:100 mouse anti-NeuN (Millipore) in host appropriate blocking serum overnight at 4° C. Primary antibodies were probed with 1:500 donkey anti-goat (Abcam), goat anti-chicken (Abcam), or goat anti-mouse (Abcam) AF 488 or 568 in appropriate blocking serum for one hour at room temperature. Tissues were blocked a second time with NGS for one hour at room temperature. […]

[2] = test system: brain lesion after hypoxia/ischemia; assay: T2 MRI for brain tissue viability, lesion volume and edema
Experimental: Neonatal hypoxia/ischemia was induced in Wistar rat pups (age of 10±1 days, P10) according to Rice et al. (1981) and with modifications. Rat pups were anesthetized with 5% isoflurane (in 70% N2O and 30% O2; flow 300 ml/min). During the operation the concentration of anesthetic was reduced to 1.0-1.5% to maintain adequate level of anesthesia. The rectal temperature was maintained at 37.0±1.5° C. with a homeothermic blanket system (Harvard Apparatus, UK). Just before first incision, pups received buprenorphine 0.03 mg/kg i.p. After midline skin incision, the right common carotid artery (CCA) was exposed and permanently ligated distal from the carotid bifurcation. Thereafter the wound was closed, disinfected, and the animals were allowed to recover from anesthesia for 1 hour before subjecting them to hypoxic conditions. Pups were carefully monitored for possible post-surgical complications. An additional dose of buprenorphine 0.03 mg/kg was administered s.c. twice a day during the first 48 hours post-surgery.
Therma-treatment (6 hours) was started 1 hour post-hypoxia, to maintain normothermia (36+/−1° C. rat internal temperature) or hypothermia (31° C.+/−1 rat internal temperature), as follows. After CCA ligation, suturing and recovery for 1 h, pups were placed into chamber submerged to heated (+37° C.) water bath. Chamber was ventilated with heated (gas lines submerged to +37° C. water) mixture of 8% O2/92% N2 while pups were subjected to hypoxia. During the hypoxia period, chamber inner temperature was monitored. Pups were kept under hypoxic conditions for 60 minutes, except in group 5. In all pups the rectal temperature was monitored to ensure normothermic body temperature during hypoxia exposure. Rectal temperature after the H/I period was measured and recorded at the end of the exposure.
No other preparation was needed. The thawed tubes were kept on ice until dosing. […]
Brain tissue viability was performed as follows. Lesion T2 and Control T2 values (in milliseconds) were measured at 24 hours and 21 days after H/I, and the data are shown as average. […]

[3] = Beam balance test (tapered/ledged beam); settings: six weeks after surgery
Experimental: No other preparation was needed. The thawed tubes were kept on ice until dosing.
Six weeks after surgery, the sensory motor functions of forelimbs and hindlimbs were tested using tapered/ledged beam (Zhao et al., Behav. Brain Res. 156 (2005), 85-94). The shape of the beam was square. The rats were pre-trained for 3 days to traverse the beam. The beam-walking apparatus consists of a horizontal 160 cm tapered (square) beam with underhanging ledges on each side to permit foot faults without falling. The end of the beam was connected to a black box (20.5 cm×25 cm×25 cm) with a platform at the starting point. A bright light was placed above the start point to motivate the rats to traverse the beam. The rats' performance was videotaped and were analyzed by calculating the slip ratio of the impaired (contralateral to lesion) forelimb and hindlimb (number of slips/number of total steps). Steps onto the ledge were scored as a full slip and a half slip was given if the limb touched the side of the beam. Also, the walking/running time on the beam were measured. The mean of three trials were used for statistical analyses. Analysis was carried out by an observer blind to the experimental groups.

## IALILEPICCQERAA-dPEG24 (cysteine pairing not given here) [PIC1]
[1]; 48 hours, versus NT and HT
  neuronal density: higher neuronal density
[1]; versus NT
  astrogliosis: reduced astrogliosis
  microglial numbers and size: reduced microglial numbers and size
C1q
  C1q expression: significant reduction
[2]; 24 hours, pooled genders, H/I+PIC1+hypo versus H/I+hypo, p<0.05
  lesion volume in MRI: reduction; also recorded: significant difference
[2]; 21 days, pooled genders, H/I+PIC1+normo versus H/I+hypo, p<0.01
  edema (%) in MRI: reduction
[2]; contralateral cortex, between study groups, pooled or separated genders
  control T2 value: no changes; also recorded: No statistical significances
[3]; between study groups
  beam balance: hind paw slips: No differences
[3]; pooled genders and males, versus H/I+normo, p<0.05
  beam balance: front paw slips: fewer front paw slips
